“Also recorded” adds a separate entry of the source. Where two headings read alike, the source gives them in different places.
Key:
[1] = cited from earlier work
5‐HT3 receptor = molecular target: T1, 5‐HT3 receptor (Homo sapiens, UniProt P46098); settings: Helsinn, data on file
T1 sequence (P46098 24-478): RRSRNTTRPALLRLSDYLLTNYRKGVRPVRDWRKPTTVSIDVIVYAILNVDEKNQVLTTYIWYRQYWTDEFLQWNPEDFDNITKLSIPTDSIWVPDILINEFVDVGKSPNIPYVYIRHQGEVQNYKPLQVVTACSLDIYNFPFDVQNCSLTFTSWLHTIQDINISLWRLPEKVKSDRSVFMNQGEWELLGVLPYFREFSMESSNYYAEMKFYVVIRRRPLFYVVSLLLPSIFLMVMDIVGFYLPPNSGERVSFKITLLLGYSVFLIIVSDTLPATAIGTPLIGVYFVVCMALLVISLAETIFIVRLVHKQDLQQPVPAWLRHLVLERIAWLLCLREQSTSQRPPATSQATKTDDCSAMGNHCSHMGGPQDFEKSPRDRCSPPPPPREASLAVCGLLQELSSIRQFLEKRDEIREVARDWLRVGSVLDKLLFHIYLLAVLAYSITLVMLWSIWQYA

[2] = after both IV and oral administration; cited from earlier work
[3] = cited from earlier work; remark: listed apart in the source
[4] = palonosetron; cited from earlier work
[5] = Biopharmaceutics Classification System class and solubility in water; assay type: physicochemical
[6] = Study 5 bioequivalence study, PK after single oral NEPA; assay type: in vivo, human
clinical [7] = settings: human, in vivo
CYP450 isoforms = settings: palonosetron; cited from earlier work
[8] = Study 9 replicate crossover bioequivalence study; assay type: in vivo, human
[9] = Study 12 PK/safety and DDI study in cancer patients; assay type: in vivo; settings: human, plasma, oral
[10] = Oral NEPA PK in cancer patients, summary across studies; assay type: in vivo; settings: human, plasma
[11] = molecular target: P‐glycoprotein (P‐gp) efflux transporter (Homo sapiens, UniProt P08183); settings: in vitro, cited from earlier work
NG108‐15 cells = settings: netupitant and palonosetron combined; cited from earlier work
[12] = Study 11 population PK, patients (117), NEPA FDC, cited from earlier work
[13] = Study 11 population PK/pharmacodynamic study in cancer patients; assay type: in vivo, human; settings: population PK modeling in patients
[14] = calculated logP; cited from earlier work
[15] = Binding to plasma proteins; assay type: in vitro ADME; settings: human, plasma
plasma proteins = test: Binding to plasma proteins; assay type: in vitro ADME
NK1 receptor = NK1 receptor (Homo sapiens, UniProt P25103); settings: NG108-15 cells; netupitant and palonosetron combined; cited from earlier work
[16] = cited from earlier work; for AUCinf / CL/F / Cmax / Tmax / Vz/F / t1/2: Study 8, healthy volunteers (22), NEPA FDC, mean (CV%)
[17] = Study 4 pilot bioequivalence study, PK after single oral NEPA; assay type: in vivo; settings: human, plasma
[18] = design: species or system human; settings: estimated from t1/2
clinical [19] = settings: human, in vivo, po
[20] = absorption, binding, metabolic, or excretory level; cited from earlier work
[21] = cited from earlier work; remark: listed apart in the source
[22] = Apical-to-basolateral permeability in MDCK II monolayer; assay type: in vitro ADME, canine; settings: dog
[23] = Absolute / oral bioavailability; assay type: in vivo; settings: human, plasma, po

Sequence of P‐glycoprotein (P‐gp) efflux transporter (P08183 whole entry): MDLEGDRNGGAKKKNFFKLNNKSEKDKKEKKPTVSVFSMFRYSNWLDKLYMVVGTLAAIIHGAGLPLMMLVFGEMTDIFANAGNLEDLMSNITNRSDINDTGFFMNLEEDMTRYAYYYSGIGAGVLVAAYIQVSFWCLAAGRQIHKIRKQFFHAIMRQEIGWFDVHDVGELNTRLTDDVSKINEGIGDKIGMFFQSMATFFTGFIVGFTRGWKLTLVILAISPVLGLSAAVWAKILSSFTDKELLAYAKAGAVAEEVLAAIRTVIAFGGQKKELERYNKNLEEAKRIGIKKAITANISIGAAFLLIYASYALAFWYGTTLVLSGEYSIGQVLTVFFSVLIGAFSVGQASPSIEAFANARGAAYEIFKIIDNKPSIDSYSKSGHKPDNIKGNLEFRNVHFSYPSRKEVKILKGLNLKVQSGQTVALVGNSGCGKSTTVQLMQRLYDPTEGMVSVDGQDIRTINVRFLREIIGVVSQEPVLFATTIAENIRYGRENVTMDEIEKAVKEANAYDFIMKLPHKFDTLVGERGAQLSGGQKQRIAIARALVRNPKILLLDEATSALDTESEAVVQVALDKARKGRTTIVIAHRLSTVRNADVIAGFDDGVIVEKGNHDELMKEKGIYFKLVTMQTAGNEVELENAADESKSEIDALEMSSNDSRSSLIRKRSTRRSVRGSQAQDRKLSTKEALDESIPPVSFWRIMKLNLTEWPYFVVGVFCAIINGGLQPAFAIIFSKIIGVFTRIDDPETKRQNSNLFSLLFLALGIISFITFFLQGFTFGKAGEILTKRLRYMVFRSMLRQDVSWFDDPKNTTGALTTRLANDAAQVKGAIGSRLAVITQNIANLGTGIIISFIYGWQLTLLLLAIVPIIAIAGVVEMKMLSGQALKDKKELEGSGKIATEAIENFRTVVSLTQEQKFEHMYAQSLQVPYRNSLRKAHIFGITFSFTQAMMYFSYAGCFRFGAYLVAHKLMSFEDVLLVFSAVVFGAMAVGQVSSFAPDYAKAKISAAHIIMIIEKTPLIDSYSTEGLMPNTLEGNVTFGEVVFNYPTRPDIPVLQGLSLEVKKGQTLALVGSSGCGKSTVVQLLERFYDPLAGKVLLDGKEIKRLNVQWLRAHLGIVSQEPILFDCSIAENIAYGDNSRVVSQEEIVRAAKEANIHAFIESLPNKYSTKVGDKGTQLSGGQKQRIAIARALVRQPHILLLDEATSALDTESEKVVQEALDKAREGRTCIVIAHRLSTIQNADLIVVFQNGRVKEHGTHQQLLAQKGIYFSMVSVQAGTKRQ
Sequence of NK1 receptor (P25103 whole entry, species assumed): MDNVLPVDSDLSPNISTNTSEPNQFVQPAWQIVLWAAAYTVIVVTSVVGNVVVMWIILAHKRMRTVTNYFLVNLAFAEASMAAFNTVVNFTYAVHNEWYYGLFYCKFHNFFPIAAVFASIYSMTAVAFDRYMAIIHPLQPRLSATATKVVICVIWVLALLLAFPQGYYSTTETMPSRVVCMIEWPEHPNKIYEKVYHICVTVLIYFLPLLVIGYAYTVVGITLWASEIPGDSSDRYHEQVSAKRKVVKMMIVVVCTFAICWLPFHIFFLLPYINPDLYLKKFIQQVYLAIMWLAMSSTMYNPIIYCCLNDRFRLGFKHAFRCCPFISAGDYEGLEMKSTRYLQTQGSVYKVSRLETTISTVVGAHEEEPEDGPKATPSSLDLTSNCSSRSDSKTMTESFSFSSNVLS

C[C@@H](O[C@H]1OCCN(Cc2nc(O)n(P(=O)(O)O)n2)[C@H]1c1ccc(F)cc1)c1cc(C(F)(F)F)cc(C(F)(F)F)c1 [fosaprepitant]
adverse reactions on intravenous administration [1]: injection‐site reactions

O=C1c2cccc3c2[C@H](CCC3)CN1[C@@H]1C[N+]2([O-])CCC1CC2 [M9, N‐oxide‐palonosetron]
5-HT3 receptor antagonist activity relative to palonosetron (5‐HT3 receptor): < 1%
fraction of administered palonosetron dose found in urine [2]: approximately 13%

C[C@@H](OC[C@@]1(c2ccccc2)CC[C@]2(CCC(=O)N2)CN1)c1cc(C(F)(F)F)cc(C(F)(F)F)c1 [rolapitant]
t1/2 [3]: approximately 180 hours
adverse reactions on intravenous administration [1]: injection‐site reactions

O=C1c2cccc3c2[C@H](CC[C@@H]3O)CN1[C@@H]1CN2CCC1CC2 [6‐S‐hydroxy‐palonosetron]
5-HT3 receptor antagonist activity relative to palonosetron (5‐HT3 receptor): < 1%

O=C1c2cccc3c2[C@H](CCC3)CN1[C@@H]1CN2CCC1CC2 [palonosetron]
solubility in water [4]: freely soluble
Biopharmaceutics Classification System class [5]: 1
CL/F ([6]; Study 5, healthy volunteers (47), single oral NEPA FDC, mean (CV%)): 9.6 (28.3) L/h
AUC(0-inf) ([6]; human, plasma, po): 56.7 ng·h/mL
Cmax ([6]; human, plasma, po): 1.53 ng/mL
Tmax ([6]; human, plasma, po): 4.68 h
Vd/F ([6]; human, plasma, po): 586 L
half-life ([6]; human, plasma, po): 2650 min
CL/F (Healthy volunteers, Min-Max of study means, single oral NEPA): 9.6 to 17.9 L/h
plasma concentration as fraction of mean Cmax (at 3 hours after oral NEPA): approximately 80%
CL renal (clinical [7]): 89.8 mL/min
CYP isoforms mediating metabolism (CYP450 isoforms): primarily metabolized by CYP2D6 and to a lesser extent by CYP3A4 and CYP1A2
CL/F ([8]; Study 9, healthy volunteers (82), NEPA FDC commercial product, mean (CV%)): 11.1 (27.6) L/h
AUC(0-inf) ([8]; human, plasma, oral): 48.2 ng·h/mL
Cmax ([8]; human, plasma, oral): 1.27 ng/mL
Tmax ([8]; human, plasma, oral): 3.76 h
Vd/F ([8]; human, plasma, oral): 575 L
half-life ([8]; human, plasma, oral): 2230 min
Vd/F [9]: 633 to 679 L
AUC(0-inf) [10]: 48.1 to 85.6 ng·h/mL
Cmax [10]: 0.85 to 1.38 ng/mL
Tmax [10]: 3.01 to 5.33 h
Vd/F [10]: 483 to 679 L
t1/2 ([3]; cancer patients, intravenous single dose): 49.8 h
t1/2 ([3]; healthy subjects, intravenous single dose): 37.4 h
substrate of P-gp (MDR1/P-gp) efflux transporter [11]: P‐gp substrate
inhibitor of P-gp efflux transporter ([11]; parent drugs): not an inhibitor; also recorded: not a P‐gp inhibitor
combined effect on inhibition of substance P-mediated response (NG108‐15 cells): synergistic effects
AUCinf ([12]; mean (CV%)): 68.611 (33.4) ng ⋅ h/mL
Cmax ([12]; mean (CV%)): 1.378 (28.3) ng/mL
Tmax ([12]; mean (CV%)): 3.01 (66.4) h
CL/F ([12]; value (%RSE)): 7.6 (%RSE = 3.64) L/h
absorption lag time [13]: 0.79 h
absorption rate constant [13]: 2.66 h⁻¹
octanol-water partition coefficient (logP) [14]: 2.72
fraction unbound [15]: 0.38
binding to plasma proteins (plasma proteins): 62%
combined effect on triggering NK1 receptor internalization (NK1 receptor): additive effects
AUCinf ([16]; fasted): 33.645 (26.7) ng ⋅ h/mL
CL/F ([16]; fasted): 17.9 (34.1) L/h
Cmax ([16]; fasted): 0.786 (28.4) ng/mL
Tmax ([16]; fasted): 4.34 (19.6) h
Vz/F ([16]; fasted): 905 (20.7) L
t1/2 ([16]; fasted): 36.9 (23.6) h
AUCinf ([16]; fed): 33.199 (20.9) ng ⋅ h/mL
CL/F ([16]; fed): 17.8 (28.0) L/h
Cmax ([16]; fed): 0.768 (20.7) ng/mL
Tmax ([16]; fed): 4.96 (24.3) h
Vz/F ([16]; fed): 962 (24.5) L
t1/2 ([16]; fed): 38.9 (29.1) h
AUCinf and Cmax under fed (high-fat breakfast) vs fasting conditions ([16]; open, randomized, 2-way crossover study in healthy volunteers): similar
Tmax [17]: 4.19 h
Vd/F [17]: 658 L
half-life [17]: 2530 min
fraction from previous NEPA administration eliminated at next dose ([18]; chemotherapy every 2 weeks): more than 99%
fraction from previous NEPA administration eliminated at next dose ([18]; chemotherapy every 3 weeks): 100%
AUC(0-inf) (clinical [19]): 33.2 to 56.7 ng·h/mL
Cmax (clinical [19]): 0.768 to 1.53 ng/mL
Tmax (clinical [19]): 3.76 to 4.96 h
Vd/F (clinical [19]): 575 to 962 L
half-life (clinical [19]): 2210 to 2900 min
PK interaction between netupitant and palonosetron [20]: no relevant PK interactions
effect of coadministration of metoclopramide or aprepitant on pharmacokinetics [21]: did not alter
Papp A→B at 0.5 μM [22]: 16 ×10⁻⁶ cm/s
Papp A→B at 50 μM [22]: 65 ×10⁻⁶ cm/s
fraction of administered palonosetron dose found in urine [2]: approximately 40%
bioavailability [23]: ~100%
